From BigSolDB 2.1

Nc1cccnc1
solubility (mole fraction)
Conditions	283.15 K	288.15 K	293.15 K	298.15 K	303.15 K	308.15 K	313.15 K	318.15 K	323.15 K
in ethanol	0.438	0.476	0.518	0.566	0.612	0.66	0.71	0.764	0.821
in toluene	0.0297	0.0427	0.0646	0.0971	0.152	0.223	0.313	0.418	0.546
